From ChEMBL document CHEMBL1909046, “DrugMatrix in vitro pharmacology data”
pIC50, pKi: −log10 of the molar value.

Tests used:
[1] = target: Voltage-gated inwardly rectifying potassium channel KCNH2 (Homo sapiens, UniProt Q12809); conditions: hek293; further: in other assays of this panel Not Active means under 50% inhibition at 10 µM
[2] = DRUGMATRIX: Sigma2 radioligand binding (ligand: [3H] Ifenprodil); type: cell membranes, Rattus norvegicus, Wistar, Brain, Membrane; conditions: Not Active = under 50% inhibition at 10 µM; for pIC50: read-out: IC50; for pKi: read-out: Ki
[3] = target: Epidermal growth factor receptor (Homo sapiens, UniProt P00533); test: DRUGMATRIX: Protein Tyrosine Kinase, EGF Receptor enzyme inhibition (substrate: Poly(Glu:Tyr)); type: cell-based, Insect cells; conditions: insect cells; Not Active = under 50% inhibition at 10 µM
[4] = target: T1, Neuropeptide Y receptor type 1 (Homo sapiens, UniProt P25929); type: cell membranes, Membrane; conditions: sk-n-mc; further: in other assays of this panel Not Active means under 50% inhibition at 10 µM
T1 sequence (P25929 whole entry): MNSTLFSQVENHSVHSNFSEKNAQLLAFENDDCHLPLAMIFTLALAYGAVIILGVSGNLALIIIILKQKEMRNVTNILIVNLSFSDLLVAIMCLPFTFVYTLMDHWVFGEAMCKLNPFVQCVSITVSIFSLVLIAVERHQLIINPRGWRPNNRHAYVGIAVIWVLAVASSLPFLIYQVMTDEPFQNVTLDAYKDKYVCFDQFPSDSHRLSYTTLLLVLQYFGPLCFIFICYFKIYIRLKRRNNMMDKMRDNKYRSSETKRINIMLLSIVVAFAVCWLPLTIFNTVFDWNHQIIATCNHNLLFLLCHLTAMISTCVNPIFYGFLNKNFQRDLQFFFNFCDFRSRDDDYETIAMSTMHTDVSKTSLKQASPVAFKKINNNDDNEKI

[5] = target: Receptor tyrosine-protein kinase erbB-2 (Homo sapiens, UniProt P04626); test: biochemical; type: cell-based, Insect cells; conditions: insect cells;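 further: inhibition of HER2 kinase enzyme activity, measured with Poly(Glu:Tyr) as the phosphorylation substrate; in other assays of this panel Not Active means under 50% inhibition at 10 µM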
[6] = target: Platelet-activating factor receptor (Homo sapiens, UniProt P25105); type: tissue-based; further: in other assays of this panel Not Active means under 50% inhibition at 10 µM
Insulin receptor = Insulin receptor (Rattus norvegicus, UniProt P15127); type: cell membranes, Wistar, Liver, Membrane; further: in other assays of this panel Not Active means under 50% inhibition at 10 µM
Caspase-1 = target: T2, Caspase-1 (Homo sapiens, UniProt P29466); design: species or system Escherichia coli
T2 sequence (P29466 whole entry): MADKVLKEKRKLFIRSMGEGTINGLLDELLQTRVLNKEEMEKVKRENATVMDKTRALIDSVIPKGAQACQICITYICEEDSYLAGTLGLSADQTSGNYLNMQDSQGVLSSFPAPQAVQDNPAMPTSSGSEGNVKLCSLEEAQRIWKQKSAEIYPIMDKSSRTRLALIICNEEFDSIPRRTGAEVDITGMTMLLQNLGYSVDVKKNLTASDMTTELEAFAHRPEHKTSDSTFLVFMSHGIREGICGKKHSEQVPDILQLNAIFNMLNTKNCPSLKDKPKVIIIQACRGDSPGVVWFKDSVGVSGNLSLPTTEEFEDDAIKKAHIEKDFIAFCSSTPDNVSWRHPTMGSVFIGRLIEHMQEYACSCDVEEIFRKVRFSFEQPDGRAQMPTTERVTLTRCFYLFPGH

Chain of Platelet-activating factor receptor (P25105 whole entry): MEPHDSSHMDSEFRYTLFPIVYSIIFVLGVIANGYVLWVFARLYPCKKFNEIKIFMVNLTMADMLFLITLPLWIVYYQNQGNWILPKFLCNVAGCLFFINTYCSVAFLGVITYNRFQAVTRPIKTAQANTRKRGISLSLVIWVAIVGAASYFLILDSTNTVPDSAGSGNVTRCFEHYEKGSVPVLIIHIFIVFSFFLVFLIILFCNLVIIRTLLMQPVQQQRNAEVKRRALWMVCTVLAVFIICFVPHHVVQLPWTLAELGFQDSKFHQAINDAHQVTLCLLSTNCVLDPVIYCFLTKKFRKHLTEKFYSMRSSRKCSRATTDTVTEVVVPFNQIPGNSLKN
Chain of Insulin receptor (P15127 27-759 limits assumed): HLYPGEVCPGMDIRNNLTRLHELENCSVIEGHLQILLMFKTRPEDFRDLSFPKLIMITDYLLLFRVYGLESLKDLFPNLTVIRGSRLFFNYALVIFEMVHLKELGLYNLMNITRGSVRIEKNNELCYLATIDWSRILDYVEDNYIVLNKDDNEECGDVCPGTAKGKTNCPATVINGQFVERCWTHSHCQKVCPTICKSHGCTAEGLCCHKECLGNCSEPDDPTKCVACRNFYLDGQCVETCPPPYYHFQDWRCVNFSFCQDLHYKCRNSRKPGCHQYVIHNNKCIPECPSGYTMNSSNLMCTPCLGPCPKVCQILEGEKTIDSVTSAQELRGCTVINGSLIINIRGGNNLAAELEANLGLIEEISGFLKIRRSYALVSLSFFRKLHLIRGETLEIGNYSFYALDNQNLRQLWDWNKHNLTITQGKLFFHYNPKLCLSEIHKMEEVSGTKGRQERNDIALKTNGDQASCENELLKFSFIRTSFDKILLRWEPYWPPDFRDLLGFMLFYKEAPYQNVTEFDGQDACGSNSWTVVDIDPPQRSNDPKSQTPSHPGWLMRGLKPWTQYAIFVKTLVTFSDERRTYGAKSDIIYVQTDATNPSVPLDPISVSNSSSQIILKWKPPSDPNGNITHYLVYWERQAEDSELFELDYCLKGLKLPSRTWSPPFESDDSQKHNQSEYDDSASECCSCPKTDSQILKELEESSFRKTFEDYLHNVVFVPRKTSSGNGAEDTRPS
Chain of Insulin receptor (P15127 764-1383 limits assumed): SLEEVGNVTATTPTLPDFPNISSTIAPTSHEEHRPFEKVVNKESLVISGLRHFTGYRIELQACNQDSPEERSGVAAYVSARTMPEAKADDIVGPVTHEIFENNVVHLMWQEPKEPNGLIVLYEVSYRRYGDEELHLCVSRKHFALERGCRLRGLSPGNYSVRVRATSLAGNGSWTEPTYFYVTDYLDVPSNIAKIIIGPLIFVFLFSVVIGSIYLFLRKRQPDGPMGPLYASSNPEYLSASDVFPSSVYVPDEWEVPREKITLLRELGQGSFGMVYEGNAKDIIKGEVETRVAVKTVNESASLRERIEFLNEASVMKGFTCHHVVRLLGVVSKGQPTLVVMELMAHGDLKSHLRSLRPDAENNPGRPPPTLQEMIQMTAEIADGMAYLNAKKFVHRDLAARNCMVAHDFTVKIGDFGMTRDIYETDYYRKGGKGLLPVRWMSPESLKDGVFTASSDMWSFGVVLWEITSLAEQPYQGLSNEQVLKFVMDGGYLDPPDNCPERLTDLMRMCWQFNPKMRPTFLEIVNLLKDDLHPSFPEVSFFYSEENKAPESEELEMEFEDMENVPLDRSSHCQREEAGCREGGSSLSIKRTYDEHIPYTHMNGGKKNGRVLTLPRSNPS
Chain of Epidermal growth factor receptor (P00533 whole entry): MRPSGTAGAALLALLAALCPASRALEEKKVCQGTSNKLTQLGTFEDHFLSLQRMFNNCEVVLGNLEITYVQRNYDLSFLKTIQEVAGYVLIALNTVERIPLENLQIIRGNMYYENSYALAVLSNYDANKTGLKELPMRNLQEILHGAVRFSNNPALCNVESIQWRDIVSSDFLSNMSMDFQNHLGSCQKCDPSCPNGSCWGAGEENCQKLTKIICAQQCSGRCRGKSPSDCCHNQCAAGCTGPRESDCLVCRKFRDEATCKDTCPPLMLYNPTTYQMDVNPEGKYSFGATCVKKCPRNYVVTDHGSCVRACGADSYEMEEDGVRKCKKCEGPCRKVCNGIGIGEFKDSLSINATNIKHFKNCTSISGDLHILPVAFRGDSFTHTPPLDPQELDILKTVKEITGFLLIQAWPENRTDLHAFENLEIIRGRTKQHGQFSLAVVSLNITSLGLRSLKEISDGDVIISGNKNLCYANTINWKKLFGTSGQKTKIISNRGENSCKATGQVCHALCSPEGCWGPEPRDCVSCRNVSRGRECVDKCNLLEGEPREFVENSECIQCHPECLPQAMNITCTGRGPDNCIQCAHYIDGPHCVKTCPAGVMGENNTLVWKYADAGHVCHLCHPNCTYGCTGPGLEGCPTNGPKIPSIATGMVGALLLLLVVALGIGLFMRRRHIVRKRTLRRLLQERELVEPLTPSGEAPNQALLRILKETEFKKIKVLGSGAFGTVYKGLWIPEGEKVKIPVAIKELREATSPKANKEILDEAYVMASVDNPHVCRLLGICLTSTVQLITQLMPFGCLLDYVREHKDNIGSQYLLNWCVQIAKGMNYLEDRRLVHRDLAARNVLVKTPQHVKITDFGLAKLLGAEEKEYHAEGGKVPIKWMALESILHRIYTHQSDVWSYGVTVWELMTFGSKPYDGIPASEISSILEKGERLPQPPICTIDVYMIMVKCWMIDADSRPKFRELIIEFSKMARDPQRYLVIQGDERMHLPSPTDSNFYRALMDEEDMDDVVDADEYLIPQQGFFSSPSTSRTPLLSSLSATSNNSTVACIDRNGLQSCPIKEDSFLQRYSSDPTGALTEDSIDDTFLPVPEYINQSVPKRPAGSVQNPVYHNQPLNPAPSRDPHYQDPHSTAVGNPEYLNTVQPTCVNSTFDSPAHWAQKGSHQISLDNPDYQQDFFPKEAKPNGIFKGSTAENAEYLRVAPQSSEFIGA
Chain of Voltage-gated inwardly rectifying potassium channel KCNH2 (Q12809 whole entry): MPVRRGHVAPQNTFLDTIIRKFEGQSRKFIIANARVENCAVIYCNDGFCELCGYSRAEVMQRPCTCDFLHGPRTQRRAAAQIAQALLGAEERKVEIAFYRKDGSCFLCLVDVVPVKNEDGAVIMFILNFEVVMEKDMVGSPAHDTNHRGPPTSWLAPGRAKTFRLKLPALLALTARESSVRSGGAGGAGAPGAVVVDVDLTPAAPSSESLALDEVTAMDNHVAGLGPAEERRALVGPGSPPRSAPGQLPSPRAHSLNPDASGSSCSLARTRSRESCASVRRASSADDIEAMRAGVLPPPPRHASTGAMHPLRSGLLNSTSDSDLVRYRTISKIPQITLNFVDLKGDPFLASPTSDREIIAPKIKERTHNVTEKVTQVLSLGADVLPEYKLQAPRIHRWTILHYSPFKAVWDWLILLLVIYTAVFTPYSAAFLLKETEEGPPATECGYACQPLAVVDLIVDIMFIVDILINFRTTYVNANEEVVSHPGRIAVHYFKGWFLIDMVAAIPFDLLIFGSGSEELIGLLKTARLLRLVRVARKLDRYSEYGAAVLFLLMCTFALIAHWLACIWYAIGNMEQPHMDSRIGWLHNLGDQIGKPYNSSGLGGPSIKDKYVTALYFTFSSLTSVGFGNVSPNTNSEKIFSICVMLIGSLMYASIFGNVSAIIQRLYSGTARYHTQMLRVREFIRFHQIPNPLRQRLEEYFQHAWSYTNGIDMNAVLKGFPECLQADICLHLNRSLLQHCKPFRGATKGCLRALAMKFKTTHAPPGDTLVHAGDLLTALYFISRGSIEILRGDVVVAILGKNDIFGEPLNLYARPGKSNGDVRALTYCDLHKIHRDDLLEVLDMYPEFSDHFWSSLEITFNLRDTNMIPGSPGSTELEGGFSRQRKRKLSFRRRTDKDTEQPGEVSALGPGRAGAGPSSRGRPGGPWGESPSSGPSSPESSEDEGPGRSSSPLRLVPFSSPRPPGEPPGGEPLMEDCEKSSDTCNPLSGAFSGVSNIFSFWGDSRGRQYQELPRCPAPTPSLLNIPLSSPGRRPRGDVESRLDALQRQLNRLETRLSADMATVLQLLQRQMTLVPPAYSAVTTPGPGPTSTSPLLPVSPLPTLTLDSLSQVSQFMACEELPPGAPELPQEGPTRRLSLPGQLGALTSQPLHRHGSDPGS

| SMILES | IC50 [1] | Ki [1] | IC50 [2] | Ki [2] | IC50 [3] | IC50 [4] | IC50 [5] | IC50 [6] | IC50 (Insulin receptor) | IC50 (Caspase-1) | Ki [4] | pIC50 [2] | pKi [2] |
| --- | --- | --- | --- | --- | --- | --- | --- | --- | --- | --- | --- | --- | --- |
| O=C(c1ccccc1C(F)(F)F)N1CCC(Cc2ccccc2)CC1 | Not Active | Not Active | Not Active | Not Active | Not Active | Not Active | Not Active | Not Active | Not Active | Not Active |  |  |  |
| O=C/C=C/c1ccccc1 | Not Active | Not Active | Not Active | Not Active | Not Active | Not Active | Not Active | Not Active | Not Active | Not Active |  |  |  |
| Nc1ccc2c3c(cccc13)C(=O)NC2=O | Not Active | Not Active | Not Active | Not Active | Not Active | Not Active | Not Active | Not Active | Not Active | Not Active |  |  |  |
| COc1ccc(C(=O)N2CCCC2=O)cc1 | Not Active | Not Active | Not Active | Not Active | Not Active | Not Active | Not Active | Not Active | Not Active | Not Active |  |  |  |
| O=c1cnn([C@@H]2O[C@H](CO)[C@@H](O)[C@H]2O)c(=O)[nH]1 [6-AZAURIDINE] | Not Active | Not Active | Not Active | Not Active | Not Active | Not Active | Not Active | Not Active | Not Active | Not Active |  |  |  |
| CC[C@H](C)[C@H]1O[C@]2(C=C[C@@H]1C)C[C@@H]1C[C@@H](C/C=C(\C)[C@@H](O[C@H]3C[C@H](OC)[C@@H](O[C@H]4C[C@H](OC)[C@@H](O)[C@H](C)O4)[C@H](C)O3)[C@@H](C)/C=C/C=C3\CO[C@@H]4[C@H](O)C(C)=C[C@@H](C(=O)O1)[C@]34O)O2.CO[C@H]1C[C@H](O[C@H]2[C@H](C)O[C@@H](O[C@@H]3/C(C)=C/C[C@@H]4C[C@@H](C[C@]5(C=C[C@H](C)[C@@H](C(C)C)O5)O4)OC(=O)[C@@H]4C=C(C)[C@@H](O)[C@H]5OC/C(=C\C=C\[C@@H]3C)[C@]54O)C[C@@H]2OC)O[C@@H](C)[C@@H]1O [ABAMECTIN] | Not Active | Not Active | Not Active | Not Active | Not Active | Not Active | Not Active | Not Active | Not Active | Not Active |  |  |  |
| NCCCC(O)(P(=O)(O)O)P(=O)(O)O [ALENDRONIC ACID] |  |  | Not Active | Not Active | Not Active | Not Active | Not Active | Not Active | Not Active | Not Active |  |  |  |
| Cc1nnc2n1-c1ccc(Cl)cc1C(c1ccccc1)=NC2 [ALPRAZOLAM] | Not Active | Not Active | Not Active | Not Active | Not Active | Not Active | Not Active | Not Active | Not Active | Not Active |  |  |  |
| Cn1c(=O)c2[nH]cnc2n(C)c1=O.Cn1c(=O)c2[nH]cnc2n(C)c1=O.NCCN [AMINOPHYLLINE] | Not Active | Not Active | Not Active | Not Active | Not Active | Not Active | Not Active | Not Active | Not Active | Not Active |  |  |  |
| CCC1(CCC(C)C)C(=O)NC(=O)NC1=O [AMOBARBITAL] | Not Active | Not Active | Not Active | Not Active | Not Active |  | Not Active | Not Active | Not Active | Not Active | Not Active |  |  |
| CC1(C)S[C@@H]2[C@H](NC(=O)[C@H](N)c3ccccc3)C(=O)N2[C@H]1C(=O)O [AMPICILLIN] |  |  | Not Active | Not Active | Not Active | Not Active | Not Active | Not Active | Not Active | Not Active |  |  |  |
| COc1ccc(C2C(=O)c3ccccc3C2=O)cc1 [ANISINDIONE] | Not Active | Not Active | Not Active | Not Active | Not Active | Not Active | Not Active | Not Active | Not Active | Not Active |  |  |  |
| O=C1O[C@H]([C@@H](O)CO)C(O)=C1O [ASCORBIC ACID] | Not Active | Not Active | Not Active | Not Active | Not Active | Not Active | Not Active | Not Active | Not Active | Not Active |  |  |  |
| CN1[C@@H]2CC[C@H]1C[C@@H](OC(=O)C(CO)c1ccccc1)C2 (stereo partly drawn) [ATROPINE] |  |  | Not Active | Not Active | Not Active | Not Active | Not Active | Not Active | Not Active | Not Active |  |  |  |
| CC(C(=O)O)c1ccc2oc(-c3ccc(Cl)cc3)nc2c1 (stereo not drawn) [BENOXAPROFEN] | Not Active | Not Active | Not Active | Not Active | Not Active | Not Active | Not Active | Not Active | Not Active | Not Active |  |  |  |
| COc1ccc2cc3[n+](cc2c1OC)CCc1cc2c(cc1-3)OCO2.[Cl-] [BERBERINE CHLORIDE] | Not Active | Not Active |  |  | Not Active | Not Active | Not Active | Not Active | Not Active | Not Active |  | 7.02 | 7.23 |
| O=C(O)CCNC(=O)c1ccccc1 [BETAMIPRON] | Not Active | Not Active | Not Active | Not Active | Not Active | Not Active | Not Active | Not Active | Not Active | Not Active |  |  |  |
| CC(=O)Oc1ccc(C(c2ccc(OC(C)=O)cc2)c2ccccn2)cc1 [BISACODYL] | Not Active | Not Active | Not Active | Not Active | Not Active | Not Active | Not Active | Not Active | Not Active | Not Active |  |  |  |
| Cc1cc2c(OCC(CNC(C)(C)C)OC(=O)c3ccccc3)cccc2[nH]1 (stereo not drawn) [BOPINDOLOL] | Not Active | Not Active | Not Active | Not Active | Not Active | Not Active | Not Active | Not Active | Not Active | Not Active |  |  |  |
| COc1cc(N)c(Cl)cc1C(=O)NC1CCN(CCCOc2ccc(F)cc2)CC1OC (stereo not drawn) [CISAPRIDE] |  |  |  |  | Not Active | Not Active | Not Active | Not Active | Not Active | Not Active |  | 6.75 | 6.96 |
| CC[C@H]1CN2CCc3cc(OC)c(OC)cc3[C@@H]2C[C@@H]1C[C@H]1NCCc2cc(OC)c(OC)cc21 [EMETINE] |  |  | Not Active | Not Active | Not Active | Not Active | Not Active | Not Active | Not Active | Not Active |  |  |  |
| O=c1cc(N2CCOCC2)oc2c(-c3ccccc3)cccc12 [LY-294002] | Not Active | Not Active | Not Active | Not Active |  | Not Active | Not Active | Not Active | Not Active | Not Active |  |  |  |
| CCN(CC)CCOCCC1=CCC2CC1C2(C)C (stereo not drawn) [MYRTECAINE] |  |  | Not Active | Not Active | Not Active | Not Active | Not Active | Not Active | Not Active | Not Active |  |  |  |
| COc1cc2nc(N3CCN(C(=O)c4ccco4)CC3)nc(N)c2cc1OC [PRAZOSIN] |  |  | Not Active | Not Active | Not Active | Not Active | Not Active | Not Active | Not Active | Not Active |  |  |  |
| CCCNCC(O)COc1ccccc1C(=O)CCc1ccccc1 (stereo not drawn) [PROPAFENONE] |  |  | Not Active | Not Active | Not Active | Not Active | Not Active | Not Active | Not Active | Not Active |  |  |  |
